# Experiments:
# [1] = system: HSC2, HSC3, HSC4, and OSC19 cells; assay: Sensitivity of squamous cell carcinoma cell lines to cisplatin, cell viability by Celltiter-Glo after 72 hours; type: cell-based; settings: OSC19 compared with HSC2, HSC3, and HSC4, cisplatin 1, 2.5, 5, 7.5 μM, FIG. 3
# Experimental: Next, GSH levels in the cells were measured using GSH-Glo™ Glutathione Assay (Promega) to examine the correlation with the CD44v expression. Furthermore, in order to examine the sensitivity of the cell lines in which CD44 expression is suppressed to cisplatin, each cell line was seeded onto a 96-well plate at 2000 cells/well and cisplatin was added the following day at concentrations of 1, 2.5, 5, and 7.5 μM. After 72 hours, the cell viability was measured using Celltiter-Glo (Promega).
# OSC19 cells [2] = assay: Level of reactive oxygen species by H2DCFDA staining, fluorescence microscopy; type: cell-based; settings: 10 μM, 24 hours, FIG. 6
# Experimental: Next, change in level of reactive oxygen species by the compounds having a high selectivity to OSC19 was examined. OSC19 cells were seeded onto 24-well glass-bottomed plate at 1×10^5 cells/well, and each compound was added at 10 μM on the following day. Subsequently, the cells were incubated for 24 hours, stained with 2′,7′-dichloro-dihydro-fluorescein-diacetate (H2DCFDA), which is a redox fluorescence indicator, and observed under a fluorescence microscope. In addition, their ability of inducing the reactive oxygen species was evaluated according to the fluorescence intensity. FIG. 6 is fluorescence micrographs of OSC19 cells treated with the compounds given in Table 1, showing the increase in ROS in OSC19 cells scored on 4 rating scales. The “4 rating scales” are as follows.
# OSC19 and HSC4 cells [3] = assay: Cell viability by Celltiter-Glo after 72 hours with pimozide or sulfasalazine; type: cell-based; settings: FIGS. 7 and 8; for sensitivity of OSC19 cells versus HSC4 cells (cell viability): pimozide 0.3-100 μM, sulfasalazine 10-1000 μM
# Experimental: Cell viability was examined for OSC19 and HSC4 cells incubated in a medium supplemented with US077 (pimozide). […] OSC19 and HSC4 cells were seeded in 96-well plates at 3000 cells/well and 2000 cells/well, respectively. On the following day, 0 μM (no addition), 0.3 μM, 1 μM, 3 μM, 10 μM, 30 μM, or 100 μM of pimozide or 0 μM (no addition), 10 μM, 30 μM, 100 μM, 300 μM, or 1000 μM of sulfasalazine were added. Then, the cells were incubated for 72 hours and cell viability was measured using Celltiter-Glo (Promega).
# OSC19 cells [4] = assay: Subcutaneous OSC19 transplant in nude mice, tumor volume and tumor mass; type: in vivo; settings: 1 mg/kg intraperitoneally once daily from day 5 to day 35 versus saline; FIGS. 9 and 10
# Experimental: Next, 1×10^6 OSC19 cells were subcutaneously transplanted into nude mice. After 5 days of transplantation, 1 mg/kg of pimozide or saline was intraperitoneally administered once daily to day 35. Short and long axes of each tumor were measured once every 3-4 days and a volume of the tumor was calculated using the following equation. Tumor volume=(long axis×(short axis)^2)/2 Specific tumor volume=tumor volume on the day measured/tumor volume at the beginning of administration Statistic analysis of the tumor volume was performed using Two-way ANOVA. Each tumor was removed after the treatment experiments and the mass of the tumor was measured. Statistic analysis of the tumor mass was performed using a t-test.
# OSC19 and HSC4 cells [5] = assay: Intracellular reactive oxygen species by H2DCFDA staining with pimozide or sulfasalazine; type: cell-based; settings: 24 hours, FIG. 11; for inductive effect on intracellular accumulation of reactive oxygen species, OSC19 versus HSC4: pimozide 1, 3, 10 μM, sulfasalazine 300 μM
# Experimental: OSC19 and HSC4 cells were seeded onto 24-well glass-bottomed plate at 1×10^5 cells/well. On the following day, 0 μM (no addition), 1 μM, 3 μM, or 10 μM of pimozide or 300 μM of sulfasalazine was added. Subsequently, the cells were incubated for 24 hours, stained with H2DCFDA to visualize intracellular reactive oxygen species, and observed under a fluorescence microscope.
# OSC19 and HSC4 cells [6] = assay: Cell viability by Celltiter-Glo after 72-hour incubation with sertindole; type: cell-based; settings: sertindole 0.19-45.00 μM, FIG. 12
# Experimental: OSC19 and HSC4 cells were seeded in 96-well plates at 3000 cells/well and 2000 cells/well, respectively, and started to be incubated. Two days after the beginning of the incubation, 0 μM (no addition), 0.19 μM, 0.56 μM, 1.67 μM, 5.00 μM, 15.00 μM, or 45.00 μM of sertindole was added. After 72-hour incubation, the number of the survived cells was measured using Celltiter-Glo (registered trademark) (Luminescent Cell Viability Assay; Promega). A ratio of the number of the survived cells to the number of the cells on the first day of incubation was calculated as a cell viability value.
# OSC19 cells [7] = assay: Ratio of H2DCFDA-stained cells to Hoechst33342-stained cells with sertindole or sulfasalazine; type: cell-based; settings: 10 μM sertindole versus 300 μM sulfasalazine, 24 hours; FIG. 13
# Experimental: OSC19 cells were seeded onto 24-well glass-bottomed plate at 1×10^5 cells/well and started to be incubated. Two days after the beginning of the incubation, 0.1 μM, 1 μM, or 10 μM of sertindole or 300 μM of sulfasalazine was added. DMSO was added to the control. The cells were then incubated for 24 hours, and 2′,7′-dichloro-dihydro-fluorescein-diacetate (H2DCFDA), which is a redox fluorescence indicator capable of emitting fluorescence when oxidized by reactive oxygen species in cells and Hoechst33342 that stains a cell nucleus were added. A ratio of the number of cells stained with H2DCFDA to the number of cells stained with Hoechst33342 was calculated.
# OSC19 = assay: Combined use of pimozide and sulfasalazine, cell viability by CellTiter-Glo after 72 hours; type: cell-based; settings: 150 μM of sulfasalazine alone, OSC19, 72 hours
# Experimental: Oral squamous cell carcinoma cell line, OSC19, was seeded onto 96-well plates at 3000 cells/well. On the following day, a combination of 0 μM (no addition; only DMSO), 1 μM, 2 μM, or 3 μM of pimozide, and 0 μM (no addition; only DMSO), 10 μM, 50 μM, 100 μM, 150 μM, or 200 μM of sulfasalazine was added. Subsequently, cells were incubated for 72 hours, and cell viability was measured using a CellTiter-Glo Luminescent Cell Viability Assay kit (Promega). Effects obtained using pimozide and sulfasalazine at different concentrations are shown in a graph in FIG. 14.
molecule,measurement,setting,value
N.N.[Cl][Pt][Cl] [cisplatin],sensitivity to cisplatin (cell viability),[1],significantly lower in sensitivity to cisplatin
"O=c1[nH]c2ccccc2n1C1CCN(CCCC(c2ccc(F)cc2)c2ccc(F)cc2)CC1 [pimozide, Pimozide]",increase in ROS in OSC19 cells scored on 4 rating scales,OSC19 cells [2],significantly great increase in ROS level
same,"inhibitory effect on cell proliferation, concentration compared with sulfasalazine",OSC19 and HSC4 cells [3],inhibitory effect on cell proliferation at a lower concentration than sulfasalazine
same,sensitivity of OSC19 cells versus HSC4 cells (cell viability),OSC19 and HSC4 cells [3],higher sensitivity to pimozide than the HSC4 cells
same,tumor volume and tumor mass on day 35 (proliferation of OSC19 cells in mice),OSC19 cells [4],inhibition of proliferation of the OSC19 cells
same,inductive effect on intracellular accumulation of reactive oxygen species compared with sulfasalazine,"OSC19 and HSC4 cells [5]; pimozide 1, 3, 10 μM versus sulfasalazine 300 μM",significantly greater inductive effect on intracellular accumulation of reactive oxygen species at a significantly lower concentration as compared with sulfasalazine
same,"inductive effect on intracellular accumulation of reactive oxygen species, OSC19 versus HSC4",OSC19 and HSC4 cells [5],inductive effect on intracellular accumulation of reactive oxygen species selectively in OSC19 cells
"O=C1NCCN1CCN1CCC(c2cn(-c3ccc(F)cc3)c3ccc(Cl)cc23)CC1 [sertindole, Sertindole]","inhibition of cell proliferation, OSC19 versus HSC4 (cell viability)",OSC19 and HSC4 cells [6],cell proliferation was inhibited by the addition of a lower concentration of sertindole for OSC19 than for HSC4
same,intracellular ROS level (H2DCFDA-stained / Hoechst33342-stained cells) compared with sulfasalazine,OSC19 cells [7],intracellular ROS level was higher as compared with a case where sulfasalazine was added at 30 times higher concentration
Sulfasalazine,sensitivity of OSC19 cells versus HSC4 cells (cell viability),OSC19 and HSC4 cells [3],higher sensitivity to sulfasalazine than the HSC4 cells
same,"inductive effect on intracellular accumulation of reactive oxygen species, OSC19 versus HSC4",OSC19 and HSC4 cells [5],selectively in OSC19 cells as in the case of sulfasalazine
same,mortality of cells,OSC19,about 30%

# From patent publication US9814707B2, “Cancer stem cell proliferation inhibitor and intracellular active oxygen accumulation inducer” (Keio University, priority 2014, dated 2017)
